Laboratory results taken from PMC7482845, “G10 is a direct activator of human STING” (PLoS ONE, 2020).
≈ marks a conversion by molar mass, not a printed value. Like-named read-outs stand apart in the source and are kept apart here.

Key:
Q variant of human STING = biological target: T1, Q variant of human STING (Homo sapiens, UniProt Q86WV6, R293Q); assay: Luciferase (ISRE.ISG reporter) assay in HEK293T cells stably expressing Q hSTING; type: cell-based
T1 construct: expressed in transfected cells
Text: • a) Stable STING expressing cells. Stable HEK293T STING-expressing cell lines were generated using plasmids purchased from Invivogen, CA, USA, that contain STING cDNA cloned into the pUNO-1 vector under the hEF1-HTLV promoter as well as the Blasticidin selection cassette. The human STING plasmids corresponding to the R232, H232 and HAQ variants were directly procured from Invivogen while the AQ and Q variants were created by mismatch PCR using cDNA from HAQ.STING and R232.STING variants respectively. These vectors were individually transfected into HEK293T cells using Lipofectamine (Invitrogen) and transfected cells were expanded under Blasticidin selection. These cells were further subjected to clonal selection using the limiting dilution method to obtain clonally pure populations of HEK293T cells expressing each of the five human STING variants. Clones with minimal ligand independent activation of STING were chosen for cellular experiments. • b) N-His R232.hSTING HEK293T cells. […]
(§1) […] clonally selected HEK293T-hSTING-Luciferase cells or control HEK293T-Luciferase cells were seeded in 384-well plates in growth medium and stimulated with known STING agonists or novel compounds. Supernatants were removed after 20 hours of treatment and secretory reporter gene activity was measured using the Quanti-Luc detection system (Invivogen) on a Spectramax i3X luminometer.

[1] = test system: immortalized human fibroblasts; design: method as in PMID 26646986; details: cited from earlier work
[2] = biological target: R232 STING (R232-HEK293T cells) (Homo sapiens, UniProt Q86WV6, H232R); assay: Ligand induced change in STING melting temperature, R232-HEK293T whole cells; details: whole cells (S8 and S9 Figs)
Experimental: Two sources of STING (ER fraction of N-His R232.hSTING HEK293T and R232.hSTING HEK293T whole cells) were used for melting temperature experiments. […] (b) 5 x 10^5 R232.hSTING cells were seeded in 24-well plates in 500 μl growth medium and stimulated with serially diluted concentrations of agonist. After 2hr of stimulation cells were harvested through centrifugation and 20 μl cells suspensions were transferred into 0.2 ml PCR-tubes and heated as above. All procedures were identical post-heating of samples. […] Precipitated proteins were separated from the soluble fraction by centrifugation at 21000g for 20 min at 4 °C. Extracted soluble protein was electrophoresed in 10% SDS-PAGE gels and transferred onto Immobilon-P membranes (Millipore). Blots were incubated with antibodies specific for total STING (Cell Signaling).

[3] = Solubility under assay conditions; type: physicochemical; details: under our assay conditions; read-out: maximum solubility
[4] = biological target: T2, R232 variant of human STING (Homo sapiens, UniProt Q86WV6, H232R); assay: Luciferase (ISRE.ISG reporter) assay in HEK293T cells stably expressing R232 hSTING; type: cell-based
T2 construct: the ER fraction from R232.STING transfected HEK293T cells which contained full length STING
Text: • a) Stable STING expressing cells. Stable HEK293T STING-expressing cell lines were generated using plasmids purchased from Invivogen, CA, USA, that contain STING cDNA cloned into the pUNO-1 vector under the hEF1-HTLV promoter as well as the Blasticidin selection cassette. The human STING plasmids corresponding to the R232, H232 and HAQ variants were directly procured from Invivogen while the AQ and Q variants were created by mismatch PCR using cDNA from HAQ.STING and R232.STING variants respectively. These vectors were individually transfected into HEK293T cells using Lipofectamine (Invitrogen) and transfected cells were expanded under Blasticidin selection. These cells were further subjected to clonal selection using the limiting dilution method to obtain clonally pure populations of HEK293T cells expressing each of the five human STING variants. Clones with minimal ligand independent activation of STING were chosen for cellular experiments. • b) N-His R232.hSTING HEK293T cells. HEK293T cells stably expressing N-His R232.hSTING were generated by the following described method. N-His R232.hSTING.pcDNA Myc B plasmid was transfected into HEK293T cells using Lipofectamine reagent (Invitrogen) and the transfected cells were selected under Hygromycin. Stably STING expressing HEK293T cells thus selected were further subjected to single cell clonal selection using the limiting dilution method to obtain a clonally pure population of HEK293T cells expressing the human R232 STING variant.
[…] clonally selected HEK293T-hSTING-Luciferase cells or control HEK293T-Luciferase cells were seeded in 384-well plates in growth medium and stimulated with known STING agonists or novel compounds. […]

[5] = biological target: T3, full length R232.hSTING (ER fraction of transfected HEK293T cells) (Homo sapiens, UniProt Q86WV6, H232R); assay: In vitro kinase assay, ER fraction with full length R232 STING plus recombinant TBK1; type: biochemical; details: cell free, immunoblot
T3 construct: ER fraction (8mg/ml) containing full length STING from R232.hSTING; host or cells: ER fraction of R232.hSTING HEK293T cells
Experimental: This was followed by homogenization 3 times with a 30 sec each pulse and 1 min cooling between each pulse. Homogenates were centrifuged at 5000g for 10 min at 4 °C to remove nuclei, mitochondria and cell membrane from the cytosolic fraction. Supernatant was further centrifuged at 100000g for 1 h at 4 °C to fractionate the ER containing cytosolic fraction. The pellet thus obtained was resuspended in homogenization buffer and washed by centrifugation at 100000g twice. Post washing, the ER fraction containing pellet was resuspended in ER buffer (final composition: 20 mM Tris-HCl, 100 mM NaCl, 5 mM MgCl2, 5 mM MnCl2, 20 mM beta Glycerophosphate, 0.2 mM Na3VO4, 1X protease inhibitor cocktail (Roche), pH 7.5) using a syringe fitted with a 26G needle passing through it several times till homogeneity. The protein content of the ER homogenate was estimated by the BCA method and aliquots were stored at -80 °C for further use. […]

[6] = test system: human PBMCs and umbilical endothelial cells; design: method as in PMID 26646986; details: cited from earlier work
TBK1 = TBK1 (Homo sapiens, UniProt Q9UHD2); assay: TBK1 kinase assay in the presence of G10; type: biochemical; details: S1 Table
parent HEK293T cells = assay: Luciferase assay in parent (control) HEK293T cells without STING; type: cell-based, human; details: HEK293T cells that do not express STING (S1 Fig)
Experimental: as §1

T2 sequence (Q86WV6 whole entry H232R): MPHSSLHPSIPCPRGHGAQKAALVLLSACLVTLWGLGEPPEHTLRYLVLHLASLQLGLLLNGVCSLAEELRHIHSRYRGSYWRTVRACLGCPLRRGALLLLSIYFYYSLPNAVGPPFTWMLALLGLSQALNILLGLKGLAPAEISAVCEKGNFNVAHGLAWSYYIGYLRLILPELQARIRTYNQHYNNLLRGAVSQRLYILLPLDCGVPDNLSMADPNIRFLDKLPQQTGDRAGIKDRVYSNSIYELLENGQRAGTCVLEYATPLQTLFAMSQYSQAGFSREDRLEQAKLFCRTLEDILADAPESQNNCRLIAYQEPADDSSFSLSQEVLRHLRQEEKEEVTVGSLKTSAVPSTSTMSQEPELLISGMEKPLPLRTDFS
T3 sequence (Q86WV6 whole entry H232R): as above
R232 STING (R232-HEK293T cells), sequence (Q86WV6 whole entry H232R): as above
T1 sequence (Q86WV6 whole entry R293Q): as the sequence (Q86WV6 whole entry H232R) above, with R232H, R293Q counted along it
TBK1, sequence (Q9UHD2 whole entry): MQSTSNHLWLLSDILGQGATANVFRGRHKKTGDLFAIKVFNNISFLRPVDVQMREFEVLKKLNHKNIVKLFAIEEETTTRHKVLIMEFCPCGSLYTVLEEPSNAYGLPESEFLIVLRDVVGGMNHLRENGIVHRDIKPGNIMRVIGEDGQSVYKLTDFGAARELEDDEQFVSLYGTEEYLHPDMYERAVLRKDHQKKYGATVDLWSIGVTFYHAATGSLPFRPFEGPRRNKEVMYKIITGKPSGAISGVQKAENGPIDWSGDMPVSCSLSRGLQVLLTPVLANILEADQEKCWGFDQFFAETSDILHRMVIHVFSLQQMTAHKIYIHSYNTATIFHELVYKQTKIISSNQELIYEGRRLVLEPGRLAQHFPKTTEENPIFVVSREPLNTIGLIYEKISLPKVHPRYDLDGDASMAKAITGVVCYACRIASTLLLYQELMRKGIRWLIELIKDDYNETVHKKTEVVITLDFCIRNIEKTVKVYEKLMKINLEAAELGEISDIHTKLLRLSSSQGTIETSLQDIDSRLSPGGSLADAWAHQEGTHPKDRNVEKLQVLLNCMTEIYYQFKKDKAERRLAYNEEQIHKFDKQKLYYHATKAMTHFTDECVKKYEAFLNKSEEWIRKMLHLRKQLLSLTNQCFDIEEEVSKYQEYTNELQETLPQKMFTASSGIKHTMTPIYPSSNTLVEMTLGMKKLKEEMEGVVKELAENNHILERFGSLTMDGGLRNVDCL

Q: Which “activity against the Q variant” value (Q variant of human STING) does the source give for `O=C(NCc1ccco1)c1ccc2c(c1)N(Cc1c(F)cccc1Cl)C(=O)CS2` [Compound G10, 4-(2-Chloro-6-fluorobenzyl)-N-(furan-2-ylmethyl)-3-oxo-3,4-dihydro-2H-benzo[b][1,4]thiazine-6-carboxamide] here?
A: Its value is “barely active”.

Q: What about the “activity in STING knockout fibroblasts” value ([1]; STING knockout fibroblasts) of the same molecule?
A: Its value is “inactive”.

Q: And the “activation of the NFκB pathway in immortalized human fibroblasts” value [1]?
A: The value was “did not activate”.

Q: What about the “ligand induced change in STING melting temperature, R232-HEK293T cells” value [2] of the same molecule?
A: The value was “did not demonstrate a significant ligand induced change”.

Q: What about the solubility [3] of the same molecule?
A: The solubility was 20 µM (≈ 8.62 µg/mL).

Q: And the EC50 ([4]; HEK293T cells expressing R232 hSTING, luciferase reporter, read-out: HEK.R232 EC50)?
A: Its EC50 is 2490 nM.

Q: What about the EC50 ([4]; ISRE.ISG54 luciferase reporter, HEK293T, 18 hours, read-out: estimated EC50, R232 variant) of the same molecule?
A: Its EC50 is 2500 nM.

Q: And the “formation of pSTING by TBK1, ER fraction with full length R232 STING” value [5]?
A: Its value is “activated”.

Q: What about the “induction of pro-inflammatory genes incl. NFκB pathway” value [6] of the same molecule?
A: Its value is “induced several pro-inflammatory genes”.

Q: What about the “effect on TBK-1 enzyme” value (TBK1) of the same molecule?
A: The value was “does not inhibit or activate”.

Q: And the “response of parent HEK293T cells (reporter gene expression)” value (parent HEK293T cells)?
A: Its value is “unresponsive”.
